# Measured values: patent publication EP2970215B1, “PYRROLIDINE DERIVATIVES, PHARMACEUTICAL COMPOSITIONS CONTAINING THEM, AND THEIR USE IN THERAPY” (AbbVie Deutschland GmbH & Co. KG, priority 2013, dated 2014)
# Molecular target: T1, human GlyT1c transporter (Homo sapiens, UniProt P48067)
# T1 construct: expressed in transfected cells; host or cells: CHO cells (recombinant; line hGlyT1c_5_CHO is named for the uptake assay)
# T1 sequence (P48067 1-706): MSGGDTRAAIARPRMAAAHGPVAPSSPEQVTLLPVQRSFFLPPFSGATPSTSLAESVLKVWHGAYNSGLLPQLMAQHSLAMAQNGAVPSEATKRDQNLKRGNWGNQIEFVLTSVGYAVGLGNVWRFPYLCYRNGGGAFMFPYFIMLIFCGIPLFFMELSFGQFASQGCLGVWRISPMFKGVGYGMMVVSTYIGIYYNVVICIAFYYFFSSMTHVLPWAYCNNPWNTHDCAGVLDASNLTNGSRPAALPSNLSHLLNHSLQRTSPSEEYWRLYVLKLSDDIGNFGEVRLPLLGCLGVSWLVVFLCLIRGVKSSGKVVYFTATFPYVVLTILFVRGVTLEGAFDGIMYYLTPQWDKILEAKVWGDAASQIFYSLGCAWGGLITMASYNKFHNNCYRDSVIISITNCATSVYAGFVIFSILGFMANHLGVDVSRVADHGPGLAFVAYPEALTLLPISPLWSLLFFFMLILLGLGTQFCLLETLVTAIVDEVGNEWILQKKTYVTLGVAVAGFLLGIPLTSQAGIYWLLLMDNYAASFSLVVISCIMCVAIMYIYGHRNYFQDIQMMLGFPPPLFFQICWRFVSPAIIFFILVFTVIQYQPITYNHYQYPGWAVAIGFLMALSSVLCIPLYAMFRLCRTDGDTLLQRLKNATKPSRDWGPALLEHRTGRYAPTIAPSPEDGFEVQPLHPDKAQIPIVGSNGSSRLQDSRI
# Experiment: Radioligand binding assay using recombinant CHO cell membranes expressing human GlyT1
# Conditions: radioligand binding to human GlyT1c transporter-expressing membranes
# Source text: 2. Radioligand binding assays using recombinant CHO cell membranes expressing human GlyT1: […]
row,Ki [nM],SMILES
1,≤ 100,"Cn1cnc(S(=O)(=O)N2C[C@@H](COc3ccc(Cl)cc3Cl)[C@H](c3ccc(F)cc3)C2)c1 (relative stereo) [Example 246, 4-{[trans-3-[(2,4-dichlorophenoxy)methyl]-4-(4-fluorophenyl)pyrrolidin-1-yl]sulfonyl}-1-methyl-1H-imidazole]"
2,≤ 1000,"Cn1cnc(S(=O)(=O)N2C[C@@H](COc3cccc(Cl)c3)[C@H](c3ccc(F)cc3)C2)c1 (relative stereo) [Example 248, 4-{[trans-3-[(3-chlorophenoxy)methyl]-4-(4-fluorophenyl)pyrrolidin-1-yl]sulfonyl}-1-methyl-1H-imidazole]"
3,≤ 1000,"Cn1cnc(S(=O)(=O)N2C[C@@H](COc3ccc(Cl)c(C(F)(F)F)c3)[C@H](c3ccc(F)cc3)C2)c1 (relative stereo) [Example 249, 4-{[trans-3-{[4-chloro-3-(trifluoromethyl)phenoxy]methyl}-4-(4-fluorophenyl)pyrrolidin-1-yl]sulfonyl}-1-methyl-1H-imidazole]"
4,≤ 10000,"Cn1cnc(S(=O)(=O)N2C[C@@H](COc3cccc(C(F)(F)F)c3Cl)[C@H](c3ccc(F)cc3)C2)c1 (relative stereo) [Example 250, 4-{[trans-3-{[2-chloro-3-(trifluoromethyl)phenoxy]methyl}-4-(4-fluorophenyl)pyrrolidin-1-yl]sulfonyl}-1-methyl-1H-imidazole]"
5,≤ 100,"Cn1cnc(S(=O)(=O)N2C[C@@H](COc3cccc(F)c3)[C@H](c3ccc(F)cc3)C2)c1 (relative stereo) [Example 251, 4-{[trans-3-[(3-fluorophenoxy)methyl]-4-(4-fluorophenyl)pyrrolidin-1-yl]sulfonyl}-1-methyl-1H-imidazole]"
6,≤ 1000,"Cn1cnc(S(=O)(=O)N2C[C@@H](Nc3cccc(F)c3)[C@H](c3ccccc3Cl)C2)c1 (relative stereo) [Example 252, trans-4-(2-chlorophenyl)-N-(3-fluorophenyl)-1-[(1-methyl-1H-imidazol-4-yl)sulfonyl]pyrrolidin-3-amine]"
7,≤ 1000,"Cn1cnc(S(=O)(=O)N2C[C@@H](Nc3ccc(F)cc3)[C@H](c3ccccc3Cl)C2)c1 (relative stereo) [Example 253, trans-4-(2-chlorophenyl)-N-(4-fluorophenyl)-1-[(1-methyl-1H-imidazol-4-yl)sulfonyl]pyrrolidin-3-amine]"
8,≤ 10000,"Cn1cnc(S(=O)(=O)N2C[C@@H](Nc3ccc(Cl)cc3)[C@H](c3ccccc3Cl)C2)c1 (relative stereo) [Example 254, trans-4-(2-chlorophenyl)-N-(4-chlorophenyl)-1-[(1-methyl-1H-imidazol-4-yl)sulfonyl]pyrrolidin-3-amine]"
9,≤ 100,"Cn1cnc(S(=O)(=O)N2C[C@@H](Nc3cccc(C(F)(F)F)c3)[C@H](c3ccccc3Cl)C2)c1 (relative stereo) [Example 255, trans-4-(2-chlorophenyl)-1-[(1-methyl-1H-imidazol-4-yl)sulfonyl]-N-[3-(trifluoromethyl)phenyl]pyrrolidin-3-amine]"
10,≤ 1000,"Cn1cnc(S(=O)(=O)N2C[C@@H](Nc3ccc(C(F)(F)F)cc3)[C@H](c3ccccc3Cl)C2)c1 (relative stereo) [Example 256, trans-4-(2-chlorophenyl)-1-[(1-methyl-1H-imidazol-4-yl)sulfonyl]-N-[4-(trifluoromethyl)phenyl]pyrrolidin-3-amine]"
11,≤ 100,"Cn1cnc(S(=O)(=O)N2C[C@@H](Nc3ccc(F)c(Cl)c3)[C@H](c3ccccc3Cl)C2)c1 (relative stereo) [Example 257, trans-N-(3-chloro-4-fluorophenyl)-4-(2-chlorophenyl)-1-[(1-methyl-1H-imidazol-4-yl)sulfonyl]pyrrolidin-3-amine]"
12,≤ 1000,"Cn1cnc(S(=O)(=O)N2C[C@@H](Nc3ccc(F)c(C(F)(F)F)c3)[C@H](c3ccccc3Cl)C2)c1 (relative stereo) [Example 258, trans-4-(2-chlorophenyl)-N-[4-fluoro-3-(trifluoromethyl)phenyl]-1-[(1-methyl-1H-imidazol-4-yl)sulfonyl]pyrrolidin-3-amine]"
13,≤ 1000,"Cn1cnc(S(=O)(=O)N2C[C@@H](Nc3ccnc(C(F)(F)F)c3)[C@H](c3ccccc3Cl)C2)c1 (relative stereo) [Example 259, N-{trans-4-(2-chlorophenyl)-1-[(1-methyl-1H-imidazol-4-yl)sulfonyl]pyrrolidin-3-yl}-2-(trifluoromethyl)pyridin-4-amine]"
14,≤ 100,"Cn1cnc(S(=O)(=O)N2C[C@@H](NCc3ccccc3Cl)[C@H](c3ccc(F)cc3)C2)c1 (relative stereo) [Example 260, trans-N-(2-chlorobenzyl)-4-(4-fluorophenyl)-1-[(1-methyl-1H-imidazol-4-yl)sulfonyl]pyrrolidin-3-amine]"
15,≤ 1000,"Cn1cnc(S(=O)(=O)N2C[C@@H](NCc3cccc(Cl)c3)[C@H](c3ccc(F)cc3)C2)c1 (relative stereo) [Example 261, trans-N-(3-chlorobenzyl)-4-(4-fluorophenyl)-1-[(1-methyl-1H-imidazol-4-yl)sulfonyl]pyrrolidin-3-amine]"
16,≤ 10,"Cn1cnc(S(=O)(=O)N2C[C@@H](NCc3ccc(Cl)cc3)[C@H](c3ccc(F)cc3)C2)c1 (relative stereo) [Example 262, trans-N-(4-chlorobenzyl)-4-(4-fluorophenyl)-1-[(1-methyl-1H-imidazol-4-yl)sulfonyl]pyrrolidin-3-amine]"
17,≤ 100,"Cn1cnc(S(=O)(=O)N2C[C@@H](NCc3ccccc3F)[C@H](c3ccc(F)cc3)C2)c1 (relative stereo) [Example 263, trans-N-(2-fluorobenzyl)-4-(4-fluorophenyl)-1-[(1-methyl-1H-imidazol-4-yl)sulfonyl]pyrrolidin-3-amine]"
18,≤ 1000,"Cn1cnc(S(=O)(=O)N2C[C@@H](NCc3cccc(F)c3)[C@H](c3ccc(F)cc3)C2)c1 (relative stereo) [Example 264, trans-N-(3-fluorobenzyl)-4-(4-fluorophenyl)-1-[(1-methyl-1H-imidazol-4-yl)sulfonyl]pyrrolidin-3-amine]"
19,≤ 1000,"Cn1cnc(S(=O)(=O)N2C[C@@H](NCc3ccccc3C(F)(F)F)[C@H](c3ccc(F)cc3)C2)c1 (relative stereo) [Example 265, trans-4-(4-fluorophenyl)-1-[(1-methyl-1H-imidazol-4-yl)sulfonyl]-N-[2-(trifluoromethyl)benzyl]pyrrolidin-3-amine]"
20,≤ 1000,"Cn1cnc(S(=O)(=O)N2C[C@@H](NCc3cccc(C(F)(F)F)c3)[C@H](c3ccc(F)cc3)C2)c1 (relative stereo) [Example 266, trans-4-(4-fluorophenyl)-1-[(1-methyl-1H-imidazol-4-yl)sulfonyl]-N-[3-(trifluoromethyl)benzyl]pyrrolidin-3-amine]"
21,≤ 10,"Cn1cnc(S(=O)(=O)N2C[C@@H](NCc3ccc(C(F)(F)F)cc3)[C@H](c3ccc(F)cc3)C2)c1 (relative stereo) [Example 267, trans-4-(4-fluorophenyl)-1-[(1-methyl-1H-imidazol-4-yl)sulfonyl]-N-[4-(trifluoromethyl)benzyl]pyrrolidin-3-amine]"
22,≤ 10000,"Cn1cnc(S(=O)(=O)N2C[C@@H](NCc3ccccn3)[C@H](c3ccc(F)cc3)C2)c1 (relative stereo) [Example 268, trans-4-(4-fluorophenyl)-1-[(1-methyl-1H-imidazol-4-yl)sulfonyl]-N-(pyridin-2-ylmethyl)pyrrolidin-3-amine]"
